Columns and labels:
NAALADase = NAALADase (Homo sapiens, UniProt Q04609); experiment: In vitro inhibition of NAALADase activity; assay type: biochemical; conditions: for Ki: in vitro inhibition of NAALADase activity; for NAALADase inhibiting activity (in words): qualitative, compared with 2-(phosphonomethyl)pentanedioic acid
Description: Various compounds of the present invention were tested for in vitro inhibition of NAALADase activity.

[1] = test system: angiogenesis in Matrigel™ plugs; experiment: In vivo assay of daily dosages of NAALADase inhibitors on angiogenesis (Matrigel plug with bFGF); design: species or system C57B1 female mice; conditions: 7 days post injection
Description: C57B1 female mice age 8 to 10 weeks (5/group) were injected subcutaneously with 0.5 mL of Matrigel™, 150 ng/mL of the angiogenic factor basic FGF (bFGF) and with 0, 0.47 μM or 4.7 μM […] (PMPA). The injected Matrigel™ rapidly formed a gel. […] Seven days post Matrigel™ injection, Matrigel™ plugs were excised and histology was performed.
The concentrations of the daily dosages as well as the coinciding initial Matrigel™ plug compositions are provided below in TABLE IV.

mice = experiment: In vivo toxicity of NAALADase inhibitors in mice; conditions: for Survival Rate After 5 days (%): observed 5 consecutive days
Source text: The mice were subsequently observed two times per day for 5 consecutive days. The survival rate at each dose level is provided below in TABLE II.

[2] = test system: angiogenesis in the Matrigel™/bFGF gels; experiment: In vivo assay of a continuous dosage of NAALADase inhibitors on angiogenesis (miniosmotic pumps, Matrigel/bFGF); design: species or system C57B1 female mice; conditions: 13 days post injection
Description: Minipumps filled with vehicle (50 mM Hepes) were also implanted at this time. Twenty-four hours later, mice were each injected subcutaneously with 0.5 mL Matrigel™ and the 150 ng/mL of the angiogenic factor, basic FGF (bFGF). Thirteen days post Matrigel™/bFGF injection, the gels were recovered, fixed in formalin and sections were stained with Trichrome-Masson stain.

Sequence of NAALADase (Q04609 whole entry): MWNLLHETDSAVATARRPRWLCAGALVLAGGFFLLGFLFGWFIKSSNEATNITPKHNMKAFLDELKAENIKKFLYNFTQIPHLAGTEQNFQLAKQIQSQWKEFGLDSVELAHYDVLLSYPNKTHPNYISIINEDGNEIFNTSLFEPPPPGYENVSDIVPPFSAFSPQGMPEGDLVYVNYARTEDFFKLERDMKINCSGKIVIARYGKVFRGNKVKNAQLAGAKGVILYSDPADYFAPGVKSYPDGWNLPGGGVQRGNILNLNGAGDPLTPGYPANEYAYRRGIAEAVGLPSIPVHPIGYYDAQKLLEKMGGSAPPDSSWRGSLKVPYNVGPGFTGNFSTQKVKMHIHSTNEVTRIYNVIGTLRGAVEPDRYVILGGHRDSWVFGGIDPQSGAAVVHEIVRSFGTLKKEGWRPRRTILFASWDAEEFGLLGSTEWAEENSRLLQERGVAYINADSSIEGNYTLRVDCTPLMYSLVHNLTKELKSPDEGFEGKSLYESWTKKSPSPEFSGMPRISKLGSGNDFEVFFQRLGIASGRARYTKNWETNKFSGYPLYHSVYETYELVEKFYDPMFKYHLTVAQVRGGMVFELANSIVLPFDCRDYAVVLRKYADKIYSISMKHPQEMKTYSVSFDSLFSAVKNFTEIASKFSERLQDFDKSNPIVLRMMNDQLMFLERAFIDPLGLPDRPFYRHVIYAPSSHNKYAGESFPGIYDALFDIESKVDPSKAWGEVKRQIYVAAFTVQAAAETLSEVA

Ki (NAALADase) | Structure (SMILES) | also measured
34.5 nM | O=C(O)CCC(CP(=O)(O)CN1C(=O)c2ccccc2C1=O)C(=O)O (stereo not drawn) | –
22.5 nM | O=C(O)CCC(CP(=O)(O)Cc1cccc(C(F)(F)F)c1)C(=O)O (stereo not drawn) | –
5.2 nM | Cc1ccc(NCP(=O)(O)CC(CCC(=O)O)C(=O)O)cc1 (stereo not drawn) | –
1.5 nM | CC(CP(=O)(O)CC(CCC(=O)O)C(=O)O)C(=O)O (stereo not drawn) | –
– | O=C(O)CCC(CP(=O)(O)O)C(=O)O (stereo not drawn) [2-(phosphonomethyl)pentanedioic acid] | Angiogenic response in Matrigel™ plugs (histology) ([1]; 3 mg/kg daily subcutaneous injection, 0.47 μM in Matrigel): decreased neovasculature or angiogenesis; Angiogenic response in Matrigel™ plugs (histology) ([1]; 3 mg/kg daily subcutaneous injection, 0.47 μM in Matrigel, listed as PMPA): decrease in blood vessels or angiogenesis; Angiogenic response in Matrigel™ plugs (histology) ([1]; 30 mg/kg daily subcutaneous injection, 4.7 μM in Matrigel): decreased neovasculature or angiogenesis; Angiogenic response in Matrigel™ plugs (histology) ([1]; 30 mg/kg daily subcutaneous injection, 4.7 μM in Matrigel, listed as PMPA): decrease in blood vessels or angiogenesis; Survival Rate After 5 days (%) (mice; dose 1 mg/kg): 100%; Survival Rate After 5 days (%) (mice; dose 5 mg/kg): 100%; Survival Rate After 5 days (%) (mice; dose 10 mg/kg): 100%; Survival Rate After 5 days (%) (mice; dose 30 mg/kg): 100%; Survival Rate After 5 days (%) (mice; dose 100 mg/kg): 100%; Survival Rate After 5 days (%) (mice; dose 300 mg/kg): 100%; Survival Rate After 5 days (%) (mice; dose 500 mg/kg): 66.7%; Toxicity to mice (in words) (mice; doses 1 to 500 mg/kg): non-toxic to mice; NAALADase inhibiting activity (in words) (NAALADase): high NAALADase inhibiting activity; Angiogenic response in Matrigel™/bFGF gels ([2]; 1 μg/day continuous by minipump): strong angiogenic response; Angiogenic response in Matrigel™/bFGF gels ([2]; 10 μg/day continuous by minipump): significantly decreased angiogenesis; Angiogenic response in Matrigel™/bFGF gels ([2]; 100 μg/day continuous by minipump): significantly decreased angiogenesis
1.89 ± 0.19 nM | O=C(O)CCC(CP(=O)(O)CCC(=O)O)C(=O)O (stereo not drawn) [2-[[(2-carboxyethyl)hydroxyphosphinyl]-methyl]pentanedioic acid] | NAALADase inhibiting activity (in words) (NAALADase): lower NAALADase inhibiting activity
232 nM | O=C(O)CCC(CP(=O)(O)CCCc1ccccc1)C(=O)O (stereo not drawn) | –
34.1 nM | O=C(O)CCC(CP(=O)(O)Cc1ccccc1)C(=O)O (stereo not drawn) | –
35.9 nM | O=C(O)CCC(CP(=O)(O)c1ccccc1)C(=O)O (stereo not drawn) | –
2.5 nM | COc1ccc(NCP(=O)(O)CC(CCC(=O)O)C(=O)O)cc1 (stereo not drawn) | –
313 nM | O=C(O)CCC(CP(=O)(O)C(NCc1ccccc1)c1ccccc1)C(=O)O (stereo not drawn) | –
22.7 nM | O=C(O)CCC(CP(=O)(O)Cc1c(F)c(F)c(F)c(F)c1F)C(=O)O (stereo not drawn) | –
118 nM | CC(=O)NCP(=O)(O)CC(CCC(=O)O)C(=O)O (stereo not drawn) | –
0.57 nM | O=C(O)CCC(CP(=O)(O)CC(CCC(=O)O)C(=O)O)C(=O)O (stereo not drawn) | –
51.8 nM | O=C(O)CCC(CP(=O)(O)CNCc1ccccc1)C(=O)O (stereo not drawn) | –
114 nM | CCCCP(=O)(O)CC(CCC(=O)O)C(=O)O (stereo not drawn) | –
– | O=C(O)CC(CP(=O)(O)O)C(=O)O (stereo not drawn) [2-(phosphonomethyl)succinic acid] | NAALADase inhibiting activity (in words) (NAALADase): much lower NAALADase inhibiting activity
148 nM | O=C(O)CCC(CP(=O)(O)CCc1ccccc1)C(=O)O (stereo not drawn) | –
75 nM | O=C(O)CCC(CP(=O)(O)CNC(=O)Nc1ccccc1)C(=O)O (stereo not drawn) | –
12.7 nM | O=C(O)CCC(CP(=O)(O)CC(CCC(=O)OCc1ccccc1)C(=O)OCc1ccccc1)C(=O)O (stereo not drawn) | –

Reference: patent US20030064912A1, “Pharmaceutical compositions and methods of inhibiting angiogenesis using NAALADase inhibitors” (priority 1998, published 2003)
